Patent US8871753B2, “Macrocyclic compounds and their use as kinase inhibitors” (Incyte Corporation, priority 2008, dated 2014)
Counter-ions that a name gives are not always drawn. Like-named read-outs stand apart in the source and are kept apart here.

Key:
Assay type in all cases: biochemical
[1] = molecular target: T1, human JAK1 (a.a. 837-1142) (Homo sapiens, UniProt P23458); test: In vitro JAK kinase assay (HTRF, phosphorylation of a biotinylated peptide), JAK1; details: read-out: JAK1 IC50
T1 construct: human JAK1 (a.a. 837-1142); His tag (N); made in house; host or cells: insect cells (baculovirus)
T1 sequence (P23458 849-1154): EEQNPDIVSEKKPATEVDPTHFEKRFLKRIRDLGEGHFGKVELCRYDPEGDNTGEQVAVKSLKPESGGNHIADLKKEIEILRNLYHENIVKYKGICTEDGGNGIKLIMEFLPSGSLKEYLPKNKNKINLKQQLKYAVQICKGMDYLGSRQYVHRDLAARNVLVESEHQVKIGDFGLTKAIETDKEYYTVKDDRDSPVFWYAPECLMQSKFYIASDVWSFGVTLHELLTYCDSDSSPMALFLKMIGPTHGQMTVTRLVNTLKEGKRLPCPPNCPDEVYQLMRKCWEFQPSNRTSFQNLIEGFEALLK
Summary of the method: (§1)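 Phosphorylation of a biotinylated peptide by the JAK kinase domain, detected by HTRF with Eu-Py20 and SA-APC. ATP was 90 μM for JAK1, 30 μM for JAK2 and 3 μM for JAK3. Reactions ran 1 h at room temperature and were stopped with EDTA, followed by 40 min antibody binding.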

[2] = molecular target: T2, human JAK2 (a.a. 828-1132) (Homo sapiens, UniProt O60674); test: In vitro JAK kinase assay (HTRF, phosphorylation of a biotinylated peptide), JAK2
T2 construct: JAK2 (a.a. 828-1132); His tag (N); made in house; host or cells: insect cells (baculovirus)
T2 sequence (O60674 828-1132): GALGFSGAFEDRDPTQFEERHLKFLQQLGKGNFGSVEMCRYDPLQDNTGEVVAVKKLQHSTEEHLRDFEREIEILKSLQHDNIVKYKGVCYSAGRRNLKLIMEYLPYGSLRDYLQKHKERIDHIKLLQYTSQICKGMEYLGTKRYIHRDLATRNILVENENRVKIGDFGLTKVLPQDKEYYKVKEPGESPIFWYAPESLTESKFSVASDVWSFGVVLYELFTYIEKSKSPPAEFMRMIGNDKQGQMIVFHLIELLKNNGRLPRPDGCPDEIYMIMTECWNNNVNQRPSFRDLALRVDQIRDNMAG
Summary of the method: as §1

[3] = molecular target: T3, human JAK3 (a.a. 781-1124) (Homo sapiens, UniProt P52333); test: In vitro JAK kinase assay (HTRF, phosphorylation of a biotinylated peptide), JAK3
T3 construct: JAK3 (a.a. 781-1124); His tag (N); made in house; host or cells: insect cells (baculovirus)
T3 sequence (P52333 781-1124): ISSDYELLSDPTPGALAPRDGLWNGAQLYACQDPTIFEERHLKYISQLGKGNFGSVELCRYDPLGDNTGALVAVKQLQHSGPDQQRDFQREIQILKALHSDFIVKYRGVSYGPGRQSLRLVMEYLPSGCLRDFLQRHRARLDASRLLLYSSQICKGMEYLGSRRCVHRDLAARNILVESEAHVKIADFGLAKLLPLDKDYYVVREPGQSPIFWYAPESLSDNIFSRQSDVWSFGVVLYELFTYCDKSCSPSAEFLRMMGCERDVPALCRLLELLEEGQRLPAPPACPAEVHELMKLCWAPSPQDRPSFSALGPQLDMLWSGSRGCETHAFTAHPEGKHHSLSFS
Summary of the method: as §1

TYK2 = TYK2 (Homo sapiens, UniProt P29597); test: TYK2 kinase inhibition (Table A1)
TYK2, sequence (P29597 whole entry): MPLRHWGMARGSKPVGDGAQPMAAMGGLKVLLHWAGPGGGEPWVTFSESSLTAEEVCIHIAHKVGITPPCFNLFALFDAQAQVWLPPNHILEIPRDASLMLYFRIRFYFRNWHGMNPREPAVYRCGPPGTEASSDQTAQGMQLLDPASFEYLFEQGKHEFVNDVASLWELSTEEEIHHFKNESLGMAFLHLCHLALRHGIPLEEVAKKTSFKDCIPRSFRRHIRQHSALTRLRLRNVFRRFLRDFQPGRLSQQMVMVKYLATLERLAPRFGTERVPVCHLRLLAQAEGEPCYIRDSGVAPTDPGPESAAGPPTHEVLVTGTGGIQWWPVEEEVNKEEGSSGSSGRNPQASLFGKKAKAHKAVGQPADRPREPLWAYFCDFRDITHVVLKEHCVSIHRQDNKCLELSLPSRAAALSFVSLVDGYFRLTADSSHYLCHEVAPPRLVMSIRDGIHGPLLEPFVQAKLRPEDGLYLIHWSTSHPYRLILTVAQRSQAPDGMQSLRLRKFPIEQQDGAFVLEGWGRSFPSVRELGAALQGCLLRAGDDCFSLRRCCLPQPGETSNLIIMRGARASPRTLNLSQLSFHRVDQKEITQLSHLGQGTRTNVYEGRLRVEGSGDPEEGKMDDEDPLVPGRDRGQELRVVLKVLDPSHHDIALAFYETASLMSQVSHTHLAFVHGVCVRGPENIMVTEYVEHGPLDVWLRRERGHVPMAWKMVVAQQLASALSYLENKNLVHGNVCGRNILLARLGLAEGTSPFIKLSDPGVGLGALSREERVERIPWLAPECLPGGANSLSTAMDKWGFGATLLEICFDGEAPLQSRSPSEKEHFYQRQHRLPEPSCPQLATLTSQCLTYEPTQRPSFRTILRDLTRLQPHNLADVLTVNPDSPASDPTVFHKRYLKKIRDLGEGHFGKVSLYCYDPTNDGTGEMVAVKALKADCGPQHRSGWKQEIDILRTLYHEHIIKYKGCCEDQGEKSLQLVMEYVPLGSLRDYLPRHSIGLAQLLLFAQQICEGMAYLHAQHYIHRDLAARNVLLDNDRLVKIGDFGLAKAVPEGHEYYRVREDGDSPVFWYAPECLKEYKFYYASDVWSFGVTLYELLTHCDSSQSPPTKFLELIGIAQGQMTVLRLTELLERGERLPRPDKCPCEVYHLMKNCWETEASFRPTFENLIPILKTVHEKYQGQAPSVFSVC

[4] = molecular target: T4, Recombinant Human Anaplastic Lymphoma Kinase (Homo sapiens, UniProt Q9UM73); test: ALK HTRF kinase assay
T4 construct: purchased Invitrogen, Carlsbad, Calif
T4 sequence (Q9UM73 19-1620): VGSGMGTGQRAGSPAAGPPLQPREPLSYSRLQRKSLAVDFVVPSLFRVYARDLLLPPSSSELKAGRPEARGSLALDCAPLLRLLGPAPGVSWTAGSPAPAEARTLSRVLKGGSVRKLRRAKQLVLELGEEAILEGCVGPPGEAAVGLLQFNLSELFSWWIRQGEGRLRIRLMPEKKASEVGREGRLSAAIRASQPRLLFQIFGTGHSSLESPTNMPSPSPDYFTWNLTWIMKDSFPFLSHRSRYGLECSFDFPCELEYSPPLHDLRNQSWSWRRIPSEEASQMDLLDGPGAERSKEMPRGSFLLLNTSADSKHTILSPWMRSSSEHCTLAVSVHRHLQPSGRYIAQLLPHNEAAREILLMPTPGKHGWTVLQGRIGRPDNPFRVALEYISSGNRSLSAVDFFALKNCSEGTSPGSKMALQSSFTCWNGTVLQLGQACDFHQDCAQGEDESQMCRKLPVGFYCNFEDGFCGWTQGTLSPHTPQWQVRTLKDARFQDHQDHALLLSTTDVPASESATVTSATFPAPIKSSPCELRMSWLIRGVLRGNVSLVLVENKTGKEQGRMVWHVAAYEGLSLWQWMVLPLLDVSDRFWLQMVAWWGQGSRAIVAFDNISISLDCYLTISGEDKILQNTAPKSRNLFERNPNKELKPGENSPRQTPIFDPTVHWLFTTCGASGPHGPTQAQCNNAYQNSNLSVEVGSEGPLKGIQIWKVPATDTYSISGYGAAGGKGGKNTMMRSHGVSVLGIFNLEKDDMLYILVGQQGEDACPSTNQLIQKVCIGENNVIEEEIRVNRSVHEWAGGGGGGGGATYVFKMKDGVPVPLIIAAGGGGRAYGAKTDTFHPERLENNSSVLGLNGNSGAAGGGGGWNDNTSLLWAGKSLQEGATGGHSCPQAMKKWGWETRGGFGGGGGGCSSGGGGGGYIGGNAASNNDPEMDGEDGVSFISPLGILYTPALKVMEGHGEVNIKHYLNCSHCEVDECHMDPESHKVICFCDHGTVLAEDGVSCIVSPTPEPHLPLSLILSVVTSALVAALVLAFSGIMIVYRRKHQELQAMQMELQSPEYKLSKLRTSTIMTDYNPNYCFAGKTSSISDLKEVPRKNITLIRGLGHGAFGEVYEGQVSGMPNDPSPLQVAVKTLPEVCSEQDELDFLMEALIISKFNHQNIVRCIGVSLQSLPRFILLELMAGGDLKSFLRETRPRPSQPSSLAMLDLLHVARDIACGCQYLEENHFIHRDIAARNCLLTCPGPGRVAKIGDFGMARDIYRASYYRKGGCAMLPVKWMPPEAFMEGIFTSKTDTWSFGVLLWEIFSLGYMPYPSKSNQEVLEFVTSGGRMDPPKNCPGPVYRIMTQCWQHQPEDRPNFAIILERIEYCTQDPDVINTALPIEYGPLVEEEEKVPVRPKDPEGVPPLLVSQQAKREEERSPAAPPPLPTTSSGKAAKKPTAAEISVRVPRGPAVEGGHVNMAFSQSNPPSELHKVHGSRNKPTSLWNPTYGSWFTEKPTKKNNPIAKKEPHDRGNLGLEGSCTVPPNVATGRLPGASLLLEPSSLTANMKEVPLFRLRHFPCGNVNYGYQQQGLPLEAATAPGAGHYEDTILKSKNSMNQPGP
Summary of the method: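 Readout was HTRF between a Eu-W1024 anti-phosphotyrosine antibody and streptavidin-APC bound to biotinylated peptide phosphorylated by recombinant human ALK. IC50 values came from a four-parameter logistic fit.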

[5] = method AA1 (90 μM ATP) or AA2 (1000 μM ATP), not stated per value
[6] = method AA1 (30 μM ATP) or AA2 (1000 μM ATP), not stated per value
[7] = method AA1 (3 μM ATP) or AA2 (1000 μM ATP), not stated per value
[8] = compound at 500 nM or 1 mM, 90 μM ATP
[9] = compound at a concentration of 500 nM or 1 mM (not specified), cells shown as percentage

In the case of `NCC(=O)Nc1ccc2cc1CCc1cccc(c1)Nc1ncc(Cl)c(n1)N2` [Example A107, 2-Amino-N-[6-chloro-2,4,8,22-tetraazatetracyclo[14.3.1.1(3,7).1(9,13)]docosa-1(20),3(22),4,6,9(21),10,12,16,18-nonaen-12-yl]acetamide bis(trifluoroacetate)], the IC50 [1, 5] is reported as 0.004 µM, the IC50 [2, 6] is reported as 0.01 µM and the IC50 [3, 7] is reported as 0.0082 µM. The IC50 (TYK2) was 0.0042 µM and the “ALK % of inhibition at a concentration of 500 nM or 1 mM” value (“ALK % of inhibition” below) [4, 8] was 39%.

Compound `Clc1cnc2nc1Nc1cccc(c1)CCNc1cccc(c1)N2` [Example D78, 6-Chloro-2,4,8,16,23-pentaazatetracyclo[15.3.1.1(3,7).1(9,13)]tricosa-1(21), 3(23),4,6,9(22),10,12,17,19-nonaene bis(trifluoroacetate)] has an IC50 ([1]; Table D1) of 0.03 µM, an IC50 ([2]; Table D1) of 0.01 µM and an IC50 ([3]; Table D1) of 0.03 µM. The IC50 (TYK2; Table D1) was 0.019 µM and the IC50 ([4]; Table D1, 90 μM ATP) was 0.791 µM.

In the case of `Cc1csc(NC(=O)Nc2ccc3cc2CCc2cccc(c2)Nc2ncc(Cl)c(n2)N3)c1` [Example B120, N-[6-Chloro-2,4,8,22-tetraazatetracyclo[14.3.1.1(3,7).1(9,13)]docosa-1(20), 3(22),4,6,9(21),10,12,16,18-nonaen-12-yl]-N′-(4-methyl-2-thienyl)urea trifluoroacetate], the IC50 ([1]; Table B1) is reported as 0.0067 µM, the IC50 ([2]; Table B1) is reported as 0.0079 µM and the IC50 ([3]; Table B1) is reported as 0.068 µM. The IC50 (TYK2; Table B1) was 0.025 µM and the “ALK % of inhibition” value [4, 9] was 16%.

Compound `Cc1csc(NC(=O)Nc2ccc3cc2CCc2cccc(c2)Nc2ncc(Cl)c(n2)N3)n1` [Example B249, N-[6-Chloro-2,4,8,22-tetraazatetracyclo[14.3.1.1(3,7).1(9,13)]docosa-1(20),3(22),4,6,9(21),10,12,16,18-nonaen-12-yl]-N′-(4-methyl-1,3-thiazol-2-yl)ureatrifluoroacetate] has an IC50 ([1]; Table B1) of 0.006 µM, an IC50 ([2]; Table B1) of 0.0086 µM and an IC50 ([3]; Table B1) of 0.103 µM. For the same compound, the IC50 (TYK2; Table B1) was 0.03 µM and the “ALK % of inhibition” value [4, 9] was 35%.

`Cc1nc(S(=O)(=O)N2CCC(CC(=O)Nc3ccc4cc3CCc3cncc(c3)Nc3ncc(Cl)c(n3)N4)CC2)cn1C` [Example A230, N-[6-Chloro-2,4,8,18,22-pentaazatetracyclo[14.3.1.1(3,7).1(9,13)]docosa-1(20),3(22),4,6,9(21),10,12,16,18-nonaen-12-yl]-2-{1-[(1,2-dimethyl-1H-imidazol-4-yl)sulfonyl]piperidin-4-yl}acetamide bis(trifluoroacetate)] was tested, and the IC50 [1, 5] was 0.015 µM, the IC50 [2, 6] was 0.13 µM and the IC50 [3, 7] was greater than 0.4 µM. The IC50 (TYK2) was 0.255 µM and the “ALK % of inhibition” value [4, 8] was 50%.

`CC(C)(C)c1ccccc1NC(=O)Nc1ccc2cc1CCc1cccc(c1)Nc1ncc(Cl)c(n1)N2` [Example B110, N-(2-tert-Butylphenyl)-N′-[6-chloro-2,4,8,22-tetraazatetracyclo[14.3.1.1(3,7).1(9,13)]docosa-1(20),3(22),4,6,9(21),10,12,16,18-nonaen-12-yl]urea trifluoroacetate] gave an IC50 ([1]; Table B1) of 0.0043 µM, an IC50 ([2]; Table B1) of 0.0052 µM and an IC50 ([3]; Table B1) of 0.092 µM. For the same compound, the IC50 (TYK2; Table B1) was 0.015 µM and the “ALK % of inhibition” value [4, 9] was 7.1%.

With `COc1ccc(CN2CCN(Cc3cc4cc(c3)Nc3nc(ncc3Cl)Nc3cccc(c3)CC4)CC2)cc1` [Example B197, 6-Chloro-11-{[4-(4-methoxybenzyl)piperazin-1-yl]methyl}-2,4,8,22-tetraazatetracyclo[14.3.1.1(3,7).1(9,13)]docosa-1(20),3(22),4,6,9(21),10,12,16,18-nonaene tris(trifluoroacetate)] the IC50 ([1]; Table B1) was 0.018 µM, the IC50 ([2]; Table B1) was 0.0022 µM and the IC50 ([3]; Table B1) was 0.138 µM. It also gave an IC50 (TYK2; Table B1) of 0.188 µM and an IC50 ([4]; Table B1, cells without percent sign) greater than 1 µM.

Compound `O=C(Nc1ccc2cc1CCc1cccc(c1)Nc1ncc(Cl)c(n1)N2)c1ccc2c(c1)OCO2` [Example B71, N-[6-Chloro-2,4,8,22-tetraazatetracyclo[14.3.1.1(3,7).1(9,13)]docosa-1(20), 3(22),4,6,9(21),10,12,16,18-nonaen-12-yl]-1,3-benzodioxole-5-carboxamide trifluoroacetate] has an IC50 ([1]; Table B1) of 0.0019 µM, an IC50 ([2]; Table B1) of 0.0049 µM and an IC50 ([3]; Table B1) of 0.024 µM. The IC50 (TYK2; Table B1) was 0.0096 µM and the “ALK % of inhibition” value [4, 9] was 43%.
